Laboratory results as given in article PMC10364322, “Evaluation of chronic drug-induced electrophysiological and cytotoxic effects using human-induced pluripotent stem cell-derived cardiomyocytes (hiPSC-CMs)” (Frontiers in Pharmacology, 2023).
Read-outs that look alike come from different tables or passages of the source.

System: hiPSC-CMs (iCell-Cardiomyocytes^2)
Method in brief: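 Spontaneous field potentials and impedance recorded by MEA at 37°C, 5% CO2 in hiPSC-CM monolayers (50 K/well, fibronectin-coated), 5-min baseline before compound; final DMSO 0.1%. Values are percent change from baseline, mean ± SD, compared with DMSO by Wilcoxon-Mann Whitney, interpreted against DMSO tolerance intervals.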

## CCN(CC)CCNC(=O)c1c(C)[nH]c(/C=C2\C(=O)Nc3ccc(F)cc32)c1C [Sunitinib]
0.03 µM, 2h
  BR (beating rate), % change from baseline: 0±2%
  FPD (field-potential duration), % change from baseline: 5.5±1.5%
  FPDc (field-potential duration corrected by beat-rate), % change from baseline: 5.3±1.7%
0.03 µM, 24h
  BR (beating rate), % change from baseline: -2±3%
  FPD (field-potential duration), % change from baseline: 11±4.2%
  FPDc (field-potential duration corrected by beat-rate), % change from baseline: 10.1±3.1%
0.03 µM, 48h
  BR (beating rate), % change from baseline: -13±2%
  FPD (field-potential duration), % change from baseline: 20.5±2.7%
  FPDc (field-potential duration corrected by beat-rate), % change from baseline: 14.9±1.9 %
0.03 µM, 72h
  BR (beating rate), % change from baseline: -10±2%
  FPD (field-potential duration), % change from baseline: 19.2±2%
  FPDc (field-potential duration corrected by beat-rate), % change from baseline: 15±1.8%
0.03 µM, 96h
  BR (beating rate), % change from baseline: -18±1%
  FPD (field-potential duration), % change from baseline: 27.4±1.8%
  FPDc (field-potential duration corrected by beat-rate), % change from baseline: 19.3±1.7%
0.1 µM, 2h
  BR (beating rate), % change from baseline: -5±1%
  FPD (field-potential duration), % change from baseline: 12.2±1.2 %
  FPDc (field-potential duration corrected by beat-rate), % change from baseline: 10.3±1 %
0.1 µM, 24h
  BR (beating rate), % change from baseline: -8±4%
  FPD (field-potential duration), % change from baseline: 25.6±6.7 %
  FPDc (field-potential duration corrected by beat-rate), % change from baseline: 21.9±5 %
0.1 µM, 48h
  BR (beating rate), % change from baseline: -19±2 %
  FPD (field-potential duration), % change from baseline: 35.8±4.6 %
  FPDc (field-potential duration corrected by beat-rate), % change from baseline: 26.3±3.6 %
0.1 µM, 72h
  BR (beating rate), % change from baseline: -17±2 %
  FPD (field-potential duration), % change from baseline: 36.3±3.3 %
  FPDc (field-potential duration corrected by beat-rate), % change from baseline: 28.2±2.6 %
0.1 µM, 96h
  BR (beating rate), % change from baseline: -24±1%
  FPD (field-potential duration), % change from baseline: 49±7.7 %
  FPDc (field-potential duration corrected by beat-rate), % change from baseline: 36.1±6.4 %
0.3 µM
  time point from which EAD-like events occurred: 24 h
0.3 µM, 2h
  BR (beating rate), % change from baseline: -15±2 %
  FPD (field-potential duration), % change from baseline: 32.5±1.7 %
  FPDc (field-potential duration corrected by beat-rate), % change from baseline: 25.4±1.4 %
0.3 µM, 24h
  BR (beating rate), % change from baseline: -29±5 %
  FPD (field-potential duration), % change from baseline: 103.1±24.2 %
  FPDc (field-potential duration corrected by beat-rate), % change from baseline: 80.7±18.4 %
0.3 µM, 48h
  BR (beating rate), % change from baseline: -39±4 %
  FPD (field-potential duration), % change from baseline: 120.5±24.7 %
  FPDc (field-potential duration corrected by beat-rate), % change from baseline: 87.2±17.5 %
0.3 µM, 72h
  BR (beating rate), % change from baseline: -38±1 %
  FPD (field-potential duration), % change from baseline: 135.9±4.7 %
  FPDc (field-potential duration corrected by beat-rate), % change from baseline: 101±3.5 %
0.3 µM, 96h
  BR (beating rate), % change from baseline: -44±2 %
  FPD (field-potential duration), % change from baseline: 152.4±12.3 %
  FPDc (field-potential duration corrected by beat-rate), % change from baseline: 108.1±8 %
1 µM, 2h
  BR (beating rate), % change from baseline: -49±4 %
  FPD (field-potential duration), % change from baseline: 182.8±8.5 %
  FPDc (field-potential duration corrected by beat-rate), % change from baseline: 128.9±4.9 %
1 µM, 24h
  BR (beating rate), % change from baseline: -67±3 %
1 µM, 48h
  BR (beating rate), % change from baseline: -68±4 %
1 µM, 72h
  BR (beating rate), % change from baseline: -70±0 %
